From doi:10.1101/2022.07.12.499690v1 (biorxiv, 2022)

Target: PD-L1 (Homo sapiens, UniProt Q9NZQ7)
Experiment: bio-affinity ultrafiltration, UPLC-HRMS
Format: binding
Conditions: […] h incubation with compound; denatured PD-L1 as control

Chain of PD-L1 (Q9NZQ7 19-290): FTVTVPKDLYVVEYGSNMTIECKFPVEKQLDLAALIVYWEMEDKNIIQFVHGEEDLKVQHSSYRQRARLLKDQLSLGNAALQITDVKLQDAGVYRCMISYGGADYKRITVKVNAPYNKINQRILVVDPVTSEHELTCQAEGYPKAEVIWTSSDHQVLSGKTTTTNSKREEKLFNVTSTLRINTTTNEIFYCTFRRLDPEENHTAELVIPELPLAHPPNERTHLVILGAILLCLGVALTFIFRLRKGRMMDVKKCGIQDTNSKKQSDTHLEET

NCCc1c[nH]c2ccccc12 [tryptamine]
relative peak area enhancement: 40.98%
